{
  "source": "patent US5989874A",
  "about": "“Humectant, antistatic agent, dispersant and film-forming agent having polysaccharide as active principle, preparation process of polysaccharides, and Kliebsiella ocytoca TNM-3 strain” (Tayca Corporation, priority 1995, dated 1999)",
  "key": {"skin": {"tested_on": "skin", "conditions": "4% (w/v) aqueous solution"}, "[1]": {"experiment": "Moisture retention in high-humidity environment", "assay_type": "physicochemical", "conditions": "relative humidity 92.9%, 30° C., 3 days", "experimental": "The above operations were carried out at a constant temperature of 30° C."}, "[2]": {"experiment": "Moisture retainability in low-humidity environment", "assay_type": "physicochemical", "conditions": "relative humidity 20%, 20° C., 3 days", "description": "The above operations were carried out at a constant temperature of 20° C.\nThe sample weight was measured periodically and he moisture retention percentagewas calculated from the following equation.\nMoisture retention percentage(%)=(A-B)/B×100 (wherein A is sample weight when it became constant, and B is dry sample weight)."}, "[3]": {"tested_on": "mushroom-derived tyrosinase", "experiment": "Tyrosinase-inhibitory activity", "assay_type": "biochemical", "conditions": "relative values to kojic acid = 1.0; 0.1 ml of 300 μg/ml solution; L-tyrosine; 25° C., 10 minutes, pH 6.5", "experimental": "Absorbance at 475 nm was measured by an ultraviolet visible spectrophotometer. The above process was repeated without adding the polysaccharide, and the absorbance was measured in the similar way and given as blank. The above process was further carried out using the polysaccharide obtained in Example 3. […] The tyrosinase inhibition rate was calculated from the following equation. […] Tyrosinase inhibition rate=(OD2 -OD1)/OD2 ×100 wherein OD1 is absorbance at 475 nm in case the specimen was added, and OD2 is absorbance at 475 nm in case no specimen was added (blank)."}},
  "data": [
    {"smiles": "CCCCCCCCCCCCOS(=O)(=O)[O-].[Na+]", "note": "[sodium lauryl sulfate]", "values": [
      {"measurement": "primary irritation index", "setting": "skin", "result": 4.0}
    ]},
    {"smiles": "OCC(O)CO", "note": "[Glycerol, glycerol]", "values": [
      {"measurement": "Material retention percentage (moisture retention percentage)", "setting": "[1]", "result": 139.1, "unit": "%"},
      {"measurement": "Moisture retention", "setting": "[2]", "result": 6.9, "unit": "%"}
    ]},
    {"smiles": "O=c1cc(CO)occ1O", "note": "[Kojic acid, kojic acid]", "values": [
      {"measurement": "Tyrosinase inhibition rate", "setting": "[3]", "result": 1.0}
    ]}
  ]
}
